Measured values taken from patent publication US3966850A, “O-ethyl-S-n-propyl-O-(2-bromo-4-cyanophenyl)-thionothiol-phosphoric acid ester” (priority 1973, dated 1976).

Key:
[1] = tested on: insects; conditions: known from U.S. Pat. No. 3,607,991; cited from earlier work
[2] = tested on: warm-blooded animals; experiment: Toxicity to warm-blooded animals (statement in words); type: in vivo; conditions: as compared to prior art compounds of analogous structure and same type of action
[3] = tested on: insects and mites (Acarina); experiment: Insecticidal and acaricidal activity (statement in words); type: in vivo; conditions: sucking and biting insects and mites (Acarina)
[4] = Toxicity test/peroral (LD50, evaluation after 7 days); conditions: rat, in vivo, po
Excerpt: Test animal: Albino rat (Rattus norvegicus)
Dosing was effected volumetrically after weighing the test animals. A steel knob-ended probe was used for oral administration.

| Compound | insecticidal activity [1] | toxicity to warm-blooded animals [2] | insecticidal and acaricidal activity [3] | LD50 at 168 h [4] |
| --- | --- | --- | --- | --- |
| CCOP(=S)(OCC)Oc1ccc(C#N)cc1 [Compound A, O,O-diethyl-O-(4-cyanophenyl)-thionophosphoric acid ester] | possess insecticidal activity |  |  |  |
| CCCSP(=S)(OCC)Oc1ccc(C#N)cc1Br (stereo not shown) [I, O-ethyl-S-n-propyl-O-(2-bromo-4-cyanophenyl)-thionothiol-phosphoric acid ester] |  | very low toxicity | good insecticidal and acaricidal activity | 100 to 250 mg/kg |
